{"source": "patent EP1137438B1", "about": "“FORMULATION WITH AN IMPROVED THERAPEUTIC RANGE, CONTAINING NUCLEOTIDE SYNTHESIS INHIBITORS” (Aventis Pharma Deutschland GmbH, priority 1998, dated 2000)", "key": {"[1]": {"experiment": "Blood levels and duration of action of Verbindung 1 after later administration of Colestyramin", "type": "in vivo", "settings": "after later administration of Colestyramin (interruption of enterohepatic circulation); result in words", "text": "Die erfindungsgemäße Zubereitung kann auch Kompositionen oder Kombinationspackungen umfassen, in denen die Bestandteile nebeneinander gestellt sind und deshalb gleichzeitig, getrennt oder zeitlich abgestuft an ein und denselben menschlichen oder tierischen Körper anwendbar sind. Bevorzugt ist die zeitlich abgestufte Applikation von der Verbindung der Formel I und/oder II vor der Applikation der Verbindung, die die enterohepatische Zirkulation der Verbindung der Formel I oder II im wesentlichen verhindert. Hierzu wird beispielsweise zuerst N-(4-Trifluormethylphenyl)-2-cyan-3-hydroxy-crotonsäureamid (im folgenden als Verbindung 1 bezeichnet) appliziert. Colestyramin, das die enterohepatische Zirkulation der Verbindung 1 im wesentlichen verhindert, wird zeitlich versetzt, also z.B. 2 Stunden oder 4 Stunden nach der Gabe der Verbindung 1, appliziert. Durch diese zeitlich versetzte Gabe der Verbindung 1 und Colestyramin wird die Verbindung 1 zunächst ungehindert aus dem Verdauungstrakt resorbiert.\nNach der Gabe von Colestyramin, welches systemisch nicht resorbiert wird, wird die über die Galle ausgeschiedene Verbindung 1 an Colestyramin gebunden und kann daher nicht wieder reabsorbiert werden; dadurch wird eine Unterbrechung der enterohepatischen Zirkulation bewirkt."}, "[2]": {"tested_on": "Adjuvans induzierte Arthritis", "experiment": "Adjuvant-induced arthritis, modification after Perper (paw volume, arthritis index on day 18)", "type": "in vivo, männliche Ratten eines Lewis-Stammes", "procedure": "Adjuvans induzierte Arthritis, Modifikation nach Perper (Proc. Soc. exp. Biol. Med. 137, 506 (1971)) Als Versuchstiere dienten männliche Ratten eines Lewis-Stammes (Moellegard, Dänemark) mit einem Körpergewicht von 160 bis 210 g. Die Tiere erhielten am 1.\nTag eine subkutane Injektion in die Schwanzwurzel mit kompletten Freund'schen Adjuvans, enthaltend eine Mycobacterium butyricum Suspension in schwerem Paraffin Öl (Difco; 6 mg/kg in Paraffin Öl; Merck). Die Verbindungen N-(4-Trifluormethylphenyl)-2-cyan-3-hydroxy-crotonsäureamid und Colestyramin wurden in Carboxymethylcellulose (1 % in Wasser) suspendiert und oral verabreicht. Die Verbindungen wurden einmal täglich vom 1. bis zum 17. Versuchstag appliziert; dann erfolgte die Bestimmung des Pfotenvolumens und Arthritis-Index am 18. Tag.\nDie Schwere der Erkrankung wurde durch Messung des Pfotenvolumens beider Hinterpfoten bestimmt. Die Messung erfolgte durch die Wasserverdrängungsmethode mit einem Plethysmometer 2060 (Rhema-Labortechnik, Hofheim, Deutschland). Ferner erfolgte die Bestimmung des Arthritis Index am 18. Tag nach der Injektion.\nBestimmung des Arthritis Index: 1. Ohren 0,5 Punkte für jedes Ohr an dem eine Rötung auftritt und Knoten gebildet werden 2. Nase 1 Punkt für Bindegewebsschwellung 3. Schwanz 1 Punkt für das Auftauchen von Knoten 4. Vorderpfoten 0,5 Punkte für jede Pfote an der wenigsten eine Entzündung an einem Gelenk auftritt 5. Hinterpfoten 1 Punkt für leichte Entzündung (Schwellung) 2 Punkte für eine mittelstarke Entzündung 3 Punkte für eine massive Entzündungsreaktion\nTiere einer Kontrollgruppe \"Arthritis Kontrolle\" erhielten am 1. Tag eine subkutane Injektion in die Schwanzwurzel mit kompletten Freund'schen Adjuvans und erhielten aber nur das Lösungsmittel (1 % Carboxymethylcellulose in Wasser). Pro Dosierung und in der Kontrollgruppe wurden jeweils 6 Tiere verwendet. Als weitere Kontrollgruppe \"gesunde Kontrolle\" wurden unbehandelte Tiere eingesetzt. Als Wirkungskriterium diente die Herabsetzung der Pfotenvolumenzunahme und die Abnahme des Arthritis Index gegenüber der unbehandelten Kontrollgruppe und das Gewicht der Tiere jeweils in Prozent und bezogen auf die Arthritis Kontrolle.\nIn der folgenden Tabelle wird N-(4-Trifluormethylphenyl)-2-cyan-3-hydroxycrotonsäureamid als Verbindung 1 bezeichnet. Colestyramin wurde 4 Stunden später als Verbindung 1 appliziert. Tabelle 1 zeigt die erhaltenen Ergebnisse. Tabelle 1"}, "[3]": {"settings": "Tabelle 1, Verbindung 1 25 mg/kg oral (combination: + 1000 mg/kg Colestyramin 4 h later), once daily day 1-17, read day 18"}, "[4]": {"settings": "Tabelle 1, Verbindung 1 2,5 mg/kg oral (combination: + 1000 mg/kg Colestyramin 4 h later), once daily day 1-17, read day 18"}, "[5]": {"settings": "Tabelle 1, Verbindung 1 7,5 mg/kg oral (combination: + 1000 mg/kg Colestyramin 4 h later), once daily day 1-17, read day 18"}, "[6]": {"settings": "Tabelle 2 (Beispiel 2), Colestyramin 1000, Verbindung 1 25, combination 25 + 1000 mg/kg (Colestyramin 4 h later)"}, "[7]": {"settings": "Tabelle 3 (Beispiel 3), Colestyramin 1000, Verbindung 1 25, combination 25 + 1000 mg/kg (Colestyramin 4 h later)"}}}
{"smiles": "CC(O)=C(C#N)C(=O)Nc1ccc(C(F)(F)F)cc1", "note": "[Verbindung 1, N-(4-Trifluormethylphenyl)-2-cyan-3-hydroxy-crotonsäureamid]", "values": [{"measurement": "Wirkungsdauer und Blutspiegel der Verbindung 1", "setting": "[1]", "value": "drastisch reduziert"}, {"measurement": "Arthritis Index (%)", "setting": "[2]; [3]", "value": -100, "unit": "%"}, {"measurement": "Pfotenvolumen (%)", "setting": "[2]; [3]", "value": -92, "unit": "%"}, {"measurement": "Arthritis Index (%)", "setting": "[2]; [4]", "value": -77, "unit": "%"}, {"measurement": "Pfotenvolumen (%)", "setting": "[2]; [4]", "value": -63, "unit": "%"}, {"measurement": "Arthritis Index (%)", "setting": "[2]; [5]", "value": -92, "unit": "%"}, {"measurement": "Pfotenvolumen (%)", "setting": "[2]; [5]", "value": -83, "unit": "%"}, {"measurement": "Arthritis Index (%)", "setting": "[2]; [6]", "value": -100, "unit": "%"}, {"measurement": "Pfotenvolumen (%)", "setting": "[2]; [6]", "value": -92, "unit": "%"}, {"measurement": "Arthritis Index (%)", "setting": "[2]; [7]", "value": -100, "unit": "%"}, {"measurement": "Pfotenvolumen (%)", "setting": "[2]; [7]", "value": -110, "unit": "%"}, {"measurement": "Wirksamkeit im pathologischen Tiermodell (Adjuvans Arthritis)", "setting": "[2]; about 2,5 mg/kg/Tag Verbindung 1, effect of added Colestyramin, result in words", "value": "nicht vermindert"}]}
